# Measurements published in US8937096B2, “Use of benzo-fused heterocyle sulfamide derivatives for the treatment of mania and bipolar disorder” (priority 2005, dated 2015).
# Like-named read-outs stand apart in the source and are kept apart here.
# Experiments:
# Sprague Dawley rats = test: Forced Swim Test (Acute); type: in vivo, rat
# Description: The Forced Swim test (FST) is a commonly used procedure to screen compounds for possible antidepressant properties. This test is also known as the behavioral despair test. Rodents placed in […] tanks filled with water present a wide variety of escape or immobility behaviors. Antidepressant drugs from different classes markedly increase escape behaviors and/or decrease latency or duration of immobility.
# Venlafaxine and desipramine were dissolved in water. All drugs and their vehicles were administered orally (p.o.) by gavage in a volume of 5 mL/kg.
# Male Sprague Dawley rats (140 to 160 g) from Charles River Laboratories Wilmington, Mass. were used. The animals went through a five-day quarantine period before being subjected to the experimental procedure.
# Animals were housed in groups of four in plastic cages at an ambient temperature of 21° C. to 23° C. with an automated 12 hour light/dark cycle and access to water and commercial rodent food ad libitum. Animals were not handled more than for the routine bedding change prior to pre-test swim session.
# Each experiment consisted of seven treatment groups with n=4 animals per group. A total of 28 animals per experiment were used. Two consecutive experiments (1 and 2, 3 and 4, and 5 and 6) were exact replicas of each other. […] One treatment group of n=4 animals in each experiment was a vehicle treated group. […] In experiments 5 and 6 the effects of venlafaxine and maprotyline at 12 mg/kg, 30 mg/kg, and 60 mg/kg were tested.
# The basic apparatus consisted of a cylinder (46 cm tall×˜20 cm diameter) filled with water to 30 cm deep, at a temperature of 25±1° C. The automated version of the FST was used to perform the experiments. Plumbing for automatic filling and emptying water connected the four cylinders. Cylinders were placed in the dividing chambers 25 cm wide to separate animals visually. Each 5-minute experimental session was videotaped and analyzed in real time by computer software (Clever Systems, Inc.) for four animals at a time. The immobility, swimming, climbing and escape times were recorded by the software. The four activities are defined as follow. Immobility: the animal floats motionlessly or makes only those movements necessary to keep its head above water; Climb: the animal vigorously moves vertically while scratching the wall around the cylinder; Swim: the animal moves horizontally around in the cylinder more than necessary to keep its head above water; and Escape: sum of all vigorous active movements.
# The ability of a test compound to decrease the duration or frequency of immobility, or changes in swimming, climbing and escape times, was measured using the FST procedure described above. […] The analysis of the results in the studies described was focused on the immobility time during 5-minute test session.
# There were two swim sessions in each experiment. First, a pre-test swim session for 15 minutes was performed. Following 48 hours later was a test session of 5-minute duration. Upon completion of a swim session, each animal was placed under a heat lamp in a cage with soft bedding for approximately 15 minutes to prevent hypothermia.
# Animals were pre-treated with a vehicle or test compound after completing the pre-test swim session, then 24 hours later and then shortly prior to the 5-minute test session; i.e., three injections were given to each animal between the two swim sessions that occurred on 3 consecutive days.
# Data were analyzed using GraphPad Prism software (GraphPad Software, Inc. San Diego, Calif.). For the comparison of the effect of different doses for various drugs on immobility in the FST one-way ANOVA was used followed by Dunnett's multiple comparison test. […] The ED50 and Emax values were statistically compared using two-tail t-test.
# submissive rats = test: Dominant-Submissive Relations (DSR) assay: Reduction of Submissive Behavior Model (RSBM) of depression; type: in vivo, rat
# Description: (§1) The DSR assay is divided into two models: Reduction of Dominant Behavior Model (RDBM) of mania and Reduction of Submissive Behavior Model (RSBM) of depression. The RDBM, wherein the dominant animals are treated with test compound, is predictive of the ability of the test compound to treat mania. The RSBM, wherein the submissive animals are treated with test compound, is predictive of the ability of the test compound to treat depression.
# (§2) Male Sprague Dawley rats (140 to 160 g) from Charles River Laboratories Wilmington, Mass. were used in this assay. Shipments of rats were received at two-week intervals. Each shipment went through five-day quarantine, one-week acclimation period, and one-week selection process, followed by five-weeks of drug or vehicle treatment to those pairs selected.
# (§3) Rats were housed four per cage. Access to food was restricted to one hour per day after testing on Monday through Thursday. After testing on Friday, rats had free access to food until being fasted again on Sunday. At no time were the rats deprived of water. The food deprivation periods used had little effect on weight gain as the average weight of rats was about 300 g at the end of the study. At the conclusion of experiment rats were sacrificed by decapitation, the trunk blood and brains were collected for in vitro experiments and drug concentration measurements.
# (§4) The basic testing apparatus consisted of two chambers connected with a tunnel only large enough to allow one rat to pass through at a time. On the floor, at the mid-point of the tunnel was a container of sweetened milk. This basic apparatus was replicated, so that a total of four pairs of rats can be video tracked simultaneously. The camera can distinguish rats marked by different colors. Thus, the rats' heads were colored for the purpose of video tracking, red in one cage and yellow in the other cage. Only one animal at a time can have comfortable access to the feeder, but both animals can drink milk during the five-minute daily session. During the five-minute daily sessions, time spent in the feeder zone by each rat was recorded by the video tracking software and saved into a text file.
# The test began with a random assignment of rats into pairs. Each member of a pair was placed in an opposite chamber of the testing apparatus. The time spent in the feeder zone by each animal was recorded. During the first week (five days) of testing the animals habituate to the new environment. Dominance was assigned to the animal with the highest score during the second week of testing if three criteria were achieved. First, there must have been a significant difference (two-tailed t-test, P<0.05) between the average daily drinking scores of both animals. Second, the dominant animal score must have been at least 25% greater than the submissive animal's score. Finally, there must have been no “reversals” during the pair selection week where the putative submissive rat out-scored its dominant partner on isolated occasions. Ideally there were minimal reversals during the acclimation week as well. About twenty-five to thirty-three percent of the initial animal pairs achieved these criteria and only these pairs were continued in the study. […]
# (§5) Significant differences between time spent on the feeder by dominant and submissive rats were determined by ANOVA using GraphPad Prism software (GraphPad Software, Inc. San Diego, Calif.) followed by a two-tailed t-test (P<0.05). Comparisons were made between treatment groups using normalized dominance level values in paired animals. The dominance level is a value that measures social relation between paired subjects. Dominance level (DL)=FTD−FTS where FTD is the feeder time of dominant rats and FTS is the feeder time of submissive rats. The normalization was conducted according to the formula: Dominance Level(week n in %)=(Dominance Level(week n))/(Dominance Level(week 2) […]
# dominant rats = test: Dominant-Submissive Relations (DSR) assay: Reduction of Dominant Behavior Model (RDBM) of mania; type: in vivo, rat
# Description: as §1, §2, §3, §4
# The test began with a random assignment of rats into pairs. Each member of a pair was placed in an opposite chamber of the testing apparatus. The time spent in the feeder zone by each animal was recorded. During the first week (five days) of testing the animals habituate to the new environment. Dominance was assigned to the animal with the highest score during the second week of testing if three criteria were achieved. First, there must have been a significant difference (two-tailed t-test, P<0.05) between the average daily drinking scores of both animals. Second, the dominant animal score must have been at least 25% greater than the submissive animal's score. Finally, there must have been no “reversals” during the pair selection week where the putative submissive rat out-scored its dominant partner on isolated occasions. Ideally there were minimal reversals during the acclimation week as well. About twenty-five to thirty-three percent of the initial animal pairs achieved these criteria and only these pairs were continued in the study.
# as §5
# [1] = test system: hippocampal kindled seizures; test: Rat Hippocampal Kindling Test (Interruption of Kindled State); type: in vivo; conditions: reference drugs; suppression at doses associated with toxicity
# Description: In the present rapid hippocampal kindling model adult male Sprague-Dawley rats (300-400 g) were surgically implanted with bipolar electrodes placed in the hippocampus. […] One week later, the rats received 2-3 supra-threshold stimulations delivered every 30 min before treatment with test compound, to ensure stability of the behavioral seizure stage and after-discharge duration. Fifteen minutes after the last stimulation, a single dose of vehicle or test compound was administered i.p. (intraperitoneally). After 15 min, each rat was then stimulated every 30 min for 3 to 4 h. After each stimulation, individual seizure scores and after-discharge durations were recorded. The group mean±SEM were calculated for each parameter. Eight rats per dose and a minimum of four doses were used to establish an ED50 value. Efficacy was measured as the ability of a compound to modify the seizure score (severity of spread) and after-discharge duration (ADD; excitability) of the generalized seizures.
# Thus, according to the theories presented in current literature (Ghaemi, S. N., Boiman, E. E., and Goodwin, F. K., Soc. of Bio. Psychiatry, (1999), vol. 45, pp 137-144; Stoll, A. L., and Severus, W. E., Harvard Rev. Psychiatry, July/August (1996), Vol. 4, No. 2, pp 77-89) a decrease in seizure score and/or ADD may also be predictive of the ability of a test compound to treat the cycling associated with bipolar disorder.
# CH3/HeJ mice = test: Tail Suspension Test (Acute); type: in vivo, mouse; conditions: for Immobility Emax % of C / Mobility Emax % of C: p.o., CH3/HeJ mice, 7-min session; for ED50: Mus musculus, po, 7 min
# Description: In the tail suspension test (TST) for evaluating compounds for anti-depressant activity, mice are suspended by their tails to a metal or plastic rod using clip or scotch tape. The test is usually quite short, 5-7 min, and the amount of time the mice spend immobile is recorded either manually or with an automated device. Agents which have antidepressant activity, decrease the duration of immobility of mice in this test.
# The basic apparatus for the tail suspension assay consisted of a yellow plastic chamber (91×45×10 cm) divided for four arenas 25, 20, 20 and 25 cm wide separated by yellow plastic walls 0.75 cm thick. Mice were suspended by their tails using a rubber clip (7 cm long) attached to the plastic rod that was placed on the top of a testing chamber half way through its deep dimension. Each experimental session was videotaped and analyzed for four animals in the real time by computer software (“Depression Scan” Clever Sys Inc.). The computer justification of immobility was calibrated with the use of animals dosed with lorazepam while justification of movement was calibrated with the high dose of desipramine treated animals. […] The settings were adjusted separately for dark (CH3/HeJ and C57BI/6J strains) and white mice (Balb/cJ and A/J strains). A yellow background was used for dark mice and a blue background was used to record movements of white mice.
# The ability of a test compound to decrease the duration of immobility, or increase mobility was measured using the TST procedure described above.
# Data were analyzed using GraphPad Prism software (GraphPad Software, Inc. San Diego, Calif.). For the comparison of the effect of different doses for various drugs on immobility in the TST one-way analyses of variance (ANOVA) were used followed by Dunnett's multiple comparison test. […] The ED50 and Emax values were compared using two-way ANOVA and Bonferroni post-hoc test.
# Positive controls included duloxetine (DLX), venlafaxine (VLX) and desipramine (DMI) which were dissolved in 0.5% methylcellulose and lorazepam (LOR) which was suspended in 0.5% of methylcellulose in water by sonication. All drugs and vehicles were administered orally (p.o.) by gavage in a volume of 10 mL/kg.
# The mice were ordered 5 weeks old and at the beginning of experiment their weight was 20±5 g. Animals were housed in groups of four in plastic cages at an ambient temperature of 21° C. to 23° C. with an automated 12/12 hours light/dark cycle and access to water and a commercial rodent food ad libitum.
# Each experiment consisted of seven treatment groups with four animals per group. A total of 28 animals per experiment were used. Every two consecutive experiments (1 & 2, 3 & 4, 5 & 6 and 7 & 8) were exact replicas of each other. […] One treatment group of four animals in each experiment was a vehicle treated group. In addition to the vehicle treated group, the effects of DMI at 6 mg/kg, 12 mg/kg, 30 mg/kg, 60 mg/kg and 120 mg/kg and LOR at 5 mg/kg were tested in experiments 1 and 2. […] In experiments 5 and 6 the effects of DLX at 6 mg/kg, 12 mg/kg, 30 mg/kg, 60 mg/kg, 120 mg/kg and LOR at 5 mg/kg were tested.
smiles,measurement,setting,value
CNCCCC12CCC(c3ccccc31)c1ccccc12 [maprotyline],doses at which effect on immobility was statistically significant vs vehicle,Sprague Dawley rats; p.o.,30 mg/kg and 60 mg/kg
"CNCCC(Oc1ccc(C(F)(F)F)cc1)c1ccccc1 (centres unmarked) [fluoxetine, reference compound]",submissiveness during first week of treatment,"submissive rats; fluoxetine 10 mg/kg i.p., Compound #8 treated groups p.o.",increased submissiveness during first week of treatment
same,significant difference between dominant and submissive rats lost,submissive rats; submissive rats treated i.p. at 10.0 mg/kg,lost after third week of treatment
"O=C1Nc2ccc(Cl)cc2C(c2ccccc2Cl)=NC1O (centres unmarked) [Lorazepam, lorazepam]",effect on the rats' immobility time,"Sprague Dawley rats; 1 mg/kg p.o., negative control",no significant effect
"[Cl-].[Li+] [lithium chloride, reference compound]",dominance level effect vs control,dominant rats; 100 mg/kg,significantly different from control only after the third week of treatment
O=C1NC(=O)C(c2ccccc2)(c2ccccc2)N1 [Phenytoin],seizure activity in the hippocampal kindling model,[1],significantly suppressed seizure activity
"CCCC(CCC)C(=O)[O-].[Na+] [sodium valproate, reference compound]",dominance level,dominant rats; 30 mg/kg i.p. QD,decreased dominance level after the second week of treatment
same,difference between dominant and submissive rats lost,dominant rats; dominant rats treated i.p. QD at 30 mg/kg,lost after first week of treatment
same,permissiveness of the treated dominant rats,dominant rats; treated dominant rats permitted submissive partners to increase time on the feeder,observed to increase
"CNCCCN1c2ccccc2CCc2ccccc21 [DMI, desipramine]",Immobility Emax % of C,CH3/HeJ mice,38.5 % of C
same,Mobility Emax % of C,CH3/HeJ mice,195.7 % of C
same,Emax (immobility) in the FST,Sprague Dawley rats; p.o.,50.0 ± 8.4 s
same,doses at which effect on immobility was statistically significant vs vehicle,Sprague Dawley rats; p.o.,"6 mg/kg, 12 mg/kg, 30 mg/kg, and 60 mg/kg"
"CNCC[C@H](Oc1cccc2ccccc12)c1cccs1 [DLX, duloxetine]",ED50,CH3/HeJ mice; read-out: Immobility ED50,31.4 mg/kg
same,ED50,CH3/HeJ mice; read-out: Mobility ED50,61.5 mg/kg
same,Immobility Emax % of C,CH3/HeJ mice,80.4 % of C
same,Mobility Emax % of C,CH3/HeJ mice,175.5 % of C
